The target in data set [1] is T1, mouse Spns2 (Mus musculus, UniProt Q91VM4).
T1 construct: expressed in transfected cells; host or cells: HeLa cells (G418-resistant pools)
T1 sequence (Q91VM4 1-549): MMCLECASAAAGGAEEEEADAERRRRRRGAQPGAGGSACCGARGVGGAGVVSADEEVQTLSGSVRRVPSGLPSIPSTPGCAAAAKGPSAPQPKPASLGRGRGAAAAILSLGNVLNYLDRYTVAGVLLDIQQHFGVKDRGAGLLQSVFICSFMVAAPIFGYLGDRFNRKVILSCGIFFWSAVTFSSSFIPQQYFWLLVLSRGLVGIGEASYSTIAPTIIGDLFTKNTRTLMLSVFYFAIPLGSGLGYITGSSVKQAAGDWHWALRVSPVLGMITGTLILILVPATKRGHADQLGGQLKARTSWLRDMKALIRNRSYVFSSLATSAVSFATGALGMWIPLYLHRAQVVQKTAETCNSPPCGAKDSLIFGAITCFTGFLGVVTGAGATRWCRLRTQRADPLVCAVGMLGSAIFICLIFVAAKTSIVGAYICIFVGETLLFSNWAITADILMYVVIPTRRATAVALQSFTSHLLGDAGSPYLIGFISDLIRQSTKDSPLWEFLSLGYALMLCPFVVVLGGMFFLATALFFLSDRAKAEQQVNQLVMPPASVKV
As to the kind of experiment: HeLa cell S1P release assay (Spns2 inhibition). It counts as cell-based. The following applies: for inhibition at 1 µM: HeLa, read-out: %Inhib. (Spns2 inhibition, percent decrease in S1P secretion relative to control); for %Inhib. (Spns2 inhibition, percent decrease in S1P secretion relative to control): 1 µM. The procedure: With a library of analogs of SLB1122168 containing phenylurea, phenylcarbamate, and benzamide as bioisostere of the benzoxazole, we investigated their potential in inhibiting S1P transport using a HeLa cell assay.[36]−[38],[43] Briefly, in this assay, Spns2 is overexpressed whereas the S1P-degrading enzymes (lyase or phosphatases) were blocked with inhibitors.[44],[45] Inhibition of S1P transport is determined by measuring the amount of S1P in the buffer using LC-MS.
This assay was conducted as reported by Kharel et al.[43] Briefly, compounds were assessed in a HeLa cell assay at a 1 μM test concentration, unless noted otherwise. HeLa cells were transfected with a pcDNA3.1 plasmid encoding mouse Spns2, and pools of cells resistant to G418 were selected. S1P catabolic pathways were suppressed by the addition of 4-deoxypyridoxine (1 mM), NaF (2 mM), and Na3VO4 (0.2 mM). After growing cells to near confluence on 12-well tissue culture dishes, growth media was removed, inhibitors were introduced in release media (serum free medium containing 0.2% fatty acid free BSA), and the cells were incubated for 16–18 h at 37 °C. The BSA with bound S1P was concentrated from the release media by TFA-driven precipitation after addition of the d7-S1P internal standard, the S1P extracted from the protein pellet, and quantified by LC-MS/MS. Lower levels of S1P release into the media indicated greater degrees of Spns2 inhibition. Inhibition is reported as the percent decrease in S1P release relative to the control where no inhibitor was introduced.

Data set [2] in a line: Compound concentrations in plasma of mice after oral dose. It counts as in vivo, mice (C57BL/6j). As to the method:
We next investigated the potential oral bioavailability of 11i (SLF80821178), which will be a significant advantage over SLB1122168. […] Thus, mice were administered a single 10 mg/kg oral dose of 11i, and compound levels in plasma were quantified.
Figure 7 Compound concentrations in plasma of mice treated with 11i. Three C57BL/6j strain female mice (8–10 weeks old) were treated with a single 10 mg/kg dose of 11i administered PO. Blood samples were collected, and plasma 11i levels were quantified via LC-MS/MS.
Compounds that performed well in the HeLa cell assay were subsequently administered to mice (C57BL/6j strain). Inhibitor (10 mg/kg) or an equivalent dose of vehicle (36.1% PEG400/9.1% ethanol/4.6% solutol/50% H2O) was administered to animals via an intraperitoneal injection or oral gavage. After 6 to 16 h, blood samples were collected. Lymphocyte counts were obtained from 20 μL of mouse blood using a Heska HT5 Element blood analyzer. Plasma S1P concentrations were determined using LC-MS/MS. All animal protocols were approved prior to experimentation by the University of Virginia School of Medicine’s Animal Care and Use Committee.

A further data set relates to circulating lymphocytes. Nature of the data set: Circulating lymphocyte counts in mice. It is filed as in vivo, mice (C57BL/6j). The procedure: (§1) To determine the effect of 11iin vivo, mice were treated with 3, 10, and 30 mg/kg intraperitoneally, and the amount of circulating lymphocytes was quantified. A hallmark of Spns2 inhibition is the decrease in lymphocytes counts, which is a pharmacodynamic marker of target engagement.[54],[55] […] To determine whether blood S1P levels were affected, plasma S1P concentrations were measured via LC-MS. […] The extent by which Spns2 inhibition by knockout or a pharmacological inhibitor affects the S1P level remains unclear. A range of changes from no significant difference[30]−[32] to 45% reduction in plasma S1P levels compared to wild type littermates have been reported.[9],[24],[28],[33]
(§2) Figure 8 Biological evaluation of 11i in five C57BL/6j strain female mice (8–10 weeks old). […] Blood was drawn 4 h postdose. (B) Plasma S1P concentrations in mice treated with 11i are shown relative to vehicle 6 h following IP administration at 3 mg/kg, 10 mg/kg, and 30 mg/kg. […] Blood was drawn 4 h postdose. (D) Plasma S1P concentrations in mice treated with 11i are shown relative to vehicle 4 h post oral administration at 10 mg/kg, 30 mg/kg, and 100 mg/kg. […]
(§3) Compounds that performed well in the HeLa cell assay were subsequently administered to mice (C57BL/6j strain). […] Plasma S1P concentrations were determined using LC-MS/MS. […]

A further data set has as its system plasma S1P. As to the kind of experiment: Plasma S1P concentrations in mice. It is filed as in vivo, mice (C57BL/6j). As to the method:
as §1, §2, §3

The test system of another data set is mice. Also noted: method as in PMID 35609189. To be noted: dose 30 mg/kg; cited from earlier work.
The test system of another data set is kidney fibrosis. More on the design: method as in PMID 35976996. The following applies: unilateral ischemia-reperfusion injury; cited from earlier work.
The target of data set [3] is T1, mouse Spns2. The following applies: read-out: IC50 (Spns2 inhibition); cited from earlier work.
On the set-up of data set [4]: method as in PMID 37010497. The following applies: cited from earlier work.
The mark [5] stands for this setting: 1 μM inhibitor, HeLa cells, S1P in media by LC-MS/MS.

SMILES strings stand for the structures. “Also recorded” adds a separate entry of the source. Structures can show the parent of a compound that is named as a salt. Where two headings read alike, the source gives them in different places.

A word on the inhibition: it is the drop in the measured response relative to a control, in per cent. By IC50 is commonly meant the concentration that gives 50% inhibition. Usually Tmax stands for the time at which the peak concentration occurs.

For the compound `CCCCCCCCCCc1ccc(NC(=O)N2CCNCC2)cc1.Cl` [11i, N-(4-Decylphenyl)piperazine-1-carboxamide Hydrochloride], at mouse Spns2 [1] (setting [5]), the inhibition at 1 µM is ≥ 80%. In addition, the half-inhibitory concentration (IC50) on mouse Spns2 [1] (dose-response 1 nM to 10 μM, HeLa cells transfected with Spns2, read-out: IC50, inhibition of S1P release from HeLa cells) is 51 ± 3 nM. In addition, in data set [2] (10 mg/kg PO), the oral bioavailability result is listed as “orally bioavailable”. For the same compound, in data set [2] (female, C57BL/6j, mouse, single 10 mg/kg PO, plasma, read-out: tmax (time of maximum circulating level)), the Tmax was 4 h. Also, in data set [2] (single 10 mg/kg PO, plasma), the “compound exposure at tmax (maximum plasma concentration)” value was found to be 1.2 µM and the “time circulating levels remained elevated above 0.5 μM” value was “more than 8 h”. The “decrease in lymphocyte count, maximum level” value in the data set with circulating lymphocytes (IP 3, 10 and 30 mg/kg, blood 4 h postdose) is reported as 50%. In the data set on circulating lymphocytes (route not stated at this place (abstract)), the “reduction in circulating lymphocyte counts” value is ~50%. In addition, in the data set with plasma S1P (IP 3, 10 and 30 mg/kg, 6 h), the “change in plasma S1P levels” value is on record as “no change”. Moreover, the “change in plasma S1P levels” value in the data set with plasma S1P (PO 10, 30 and 100 mg/kg, 4 h) was “no change”.
Consider `CCCCCCCCCCc1ccc(-c2noc(CCCN)n2)cc1.Cl` [SLF1081851], for which the inhibition at 1 µM at mouse Spns2 [1] (setting [5]) came to 44 ± 5%. The toxicity to mice entry in the data set on mice is listed as “toxic”. Besides, the “effect on kidney fibrosis” value in the data set on kidney fibrosis is “ameliorated kidney fibrosis”.
For the compound `CCCCCCCCCCc1ccc(-c2cn(CC)c(CCCN)n2)cc1` [SLF80721166], the IC50 on mouse Spns2 [3] was 1400 ± 300 nM.
Take `CCCCCCCCCCc1ccc2nc(NC[C@H]3CCNC3)oc2c1.Cl` [SLB1122168]: at mouse Spns2 [1] (setting [5]), the inhibition at 1 µM is 85 ± 2%. Also, in data set [4], the oral bioavailability result is “not orally bioavailable; also recorded: poor oral bioavailability”.
Consider `CCCCCCCCCCc1ccc(C(=O)N2CCN[C@@H](C)C2)cc1.Cl` [(S)-4i, (S)-(4-Decylphenyl)(3-methylpiperazin-1-yl)methanone Hydrochloride], for which the “%Inhib. (Spns2 inhibition, percent decrease in S1P secretion relative to control)” value on mouse Spns2 [1] (setting [5]) stood at 44 ± 1%; on mouse Spns2 [1] (1 μM inhibitor, HeLa cells, S1P in media by LC-MS/MS, listed as 4i) it was 68%.
Turning to `CCCCCCCCCCc1ccc(N(C)C(=O)N2CC3CC2CN3)cc1` (stereo not drawn) [17b, N-(4-Decylphenyl)-N-methyl-2,5-diazabicyclo[2.2.1]heptane-2-carboxamide Hydrochloride], at mouse Spns2 [1] (setting [5]), the inhibition at 1 µM came out at 24 ± 9%.
With `CCCCCCCCCCc1ccc(N(C)C(=O)N2CCNCC2)cc1` [17a, N-(4-Decylphenyl)-N-methylpiperazine-1-carboxamide Hydrochloride], the inhibition at 1 µM on mouse Spns2 [1] (setting [5]) was 13 ± 4%.
Still for that read-out and setting: under `CCCCCCCCCCc1ccc(NC(=O)N2CCC(N)CC2)cc1` [11g, 4-Amino-N-(4-decylphenyl)piperidine-1-carboxamide Hydrochloride] stands 59 ± 2%.
For the compound `CCCCCCCCCCc1ccc(NC(=O)N[C@@H]2CCCNC2)cc1` [(R)-11e, (R)-1-(4-Decylphenyl)-3-(piperidin-3-yl)urea Hydrochloride], the inhibition at 1 µM on mouse Spns2 [1] (setting [5]) turned out to be 86%.
Consider `CCCCCCCCCCc1ccc(C(=O)NC2CNC2)cc1` [4b, N-(Azetidin-3-yl)-4-decylbenzamide 2,2,2-Trifluoroacetate], for which, on mouse Spns2 [1], the inhibition at 1 µM was 77 ± 1%.
Consider `CCCCCCCCCCc1ccc(N(C)C(=O)N2CC3CCC(C2)N3)cc1` [17c, N-(4-Decylphenyl)-N-methyl-3,8-diazabicyclo[3.2.1]octane-3-carboxamide Hydrochloride], for which the inhibition at 1 µM on mouse Spns2 [1] (setting [5]) is 18 ± 1%.
As to `CCCCCCCCCCc1ccc(C(=S)N[C@@H]2CCNC2)cc1` [(R)-15b, (R)-4-Decyl-N-(pyrrolidin-3-yl)benzothioamide Hydrochloride], the inhibition at 1 µM at mouse Spns2 [1] (setting [5]) was determined as 33 ± 3%.
Consider `CCCCCCCCCCc1ccc(C(=O)N(C)CCCN)cc1` [13a, N-(3-Aminopropyl)-4-decyl-N-methylbenzamide Hydrochloride], for which the inhibition at 1 µM at mouse Spns2 [1] (setting [5]) is 39 ± 4%.
With `CCCCCCCCCCc1ccc(C(=O)N[C@@H]2CCCNC2)cc1` [(R)-4e, (R)-4-Decyl-N-(piperidin-3-yl)benzamide Hydrochloride], the inhibition at 1 µM on mouse Spns2 [1] (setting [5]) was determined as 73 ± 1%.
`CCCCCCCCCCc1ccc(C(=O)NC2CCNCC2)cc1` [4g, 4-Decyl-N-(piperidin-4-yl)benzamide Hydrochloride]: on mouse Spns2 [1] (setting [5]), the inhibition at 1 µM stood at 24 ± 2%.
Consider `CCCCCCCCCCc1ccc(NC(=O)N[C@@H]2CCNC2)cc1` [(R)-11c, (R)-1-(4-Decylphenyl)-3-(pyrrolidin-3-yl)urea Hydrochloride], for which, on mouse Spns2 [1] (setting [5]), the inhibition at 1 µM amounted to 49%.
For `CCCCCCCCCCc1ccc(C(=S)N[C@@H]2CCCNC2)cc1` [(R)-15c, (R)-4-Decyl-N-(piperidin-3-yl)benzothioamide Hydrochloride], the inhibition at 1 µM on mouse Spns2 [1] (setting [5]) turned out to be 47%.

The record behind these values is article PMC11247503 (Journal of Medicinal Chemistry, 2024).
